In PMC11279566, “Novel Coumarin–Nucleobase Hybrids with Potential Anticancer Activity: Synthesis, In Vitro Cell-Based Evaluation, and Molecular Docking” (Pharmaceuticals, 2024):
Read-outs that look alike come from different tables or passages of the source. One block for each compound: values may come before it.

Columns and labels:
[1] = tested on: human acute T lymphoblastic leukemia cell lines (MOLT-3); parameters: method as in PMID 25078311; conditions: antiproliferative activity, read-out: IC50 against MOLT3 cell line; cited from earlier work
[2] = tested on: human prostate cancer cell line (DU145); parameters: method as in PMID 23124212; conditions: read-out: IC50 against DU145 cell line; cited from earlier work
[3] = tested on: human colon carcinoma cells (HCT116); experiment: colorimetric MTT cytotoxicity assay, HCT116; assay type: cell-based; conditions: for IC50: Homo sapiens, HCT-116, MTT, n = 3, compounds as HP-β-CD inclusion complex; for Selectivity Index HCT116 24 h: IC50 of HaCat / IC50 of HCT116, 24 h; for Selectivity Index HCT116 48 h: IC50 of HaCat / IC50 of HCT116, 48 h
Description: (§1) The potential antitumor activity of eight new hybrids was evaluated through colorimetric microculture MTT assay against three tumor cell lines: human colon carcinoma cells (HCT116), human laryngeal tumor cells (Hep-2), and human lung carcinoma cells (A549). The hybridized compounds were also assayed against the non-tumor cell line HaCat (human keratinocyte) in order to obtain an indication of their selective cytotoxicity. Also, the commercial anticancer drug doxorubicin was employed as a positive drug standard to compare the cytotoxicity activities. Each experiment was carried out in triplicate on three different days. The selectivity index (SI) was calculated as the ratio between the IC50 (concentration that reduces cell viability by 50%) of HaCat (non-tumor line) and the IC50 of the tumor lines.
(§2) A total of 1 mL of an ethanolic solution containing compounds 7a,b, 8a,b, 9a,b, or 10a,b (0.004 mol L^−1) was vigorously stirred with 1 mL of an aqueous solution of HP-β-CD (0.004 mol L^−1). The resulting mixture was kept under stirring until a clear solution was obtained. The final solution was concentrated under a vacuum to remove the solvent, and the remaining water was removed by lyophilization to give a water-soluble compound of the HP-β-CD complex in a powder form. The stock solutions of the compounds were prepared by dissolving the complexed compounds in 200 µL of DMSO, followed by dissolving in 1800 µL of Dulbecco’s Modified Eagle Medium (DMEM). The stock solution and dilutions were prepared prior to the cytotoxicity assays.
(§3) The human colon carcinoma (HCT116), human laryngeal tumor (Hep-2), and human lung carcinoma (A549) cell lines, and the non-tumor human keratinocyte cell line (HaCat) were purchased from Rio de Janeiro Cell Bank. The cells were maintained in DMEM supplemented with […]; Life Technologies, Carlsbad, CA, USA) and 1% penicillin–streptomycin in a humidified 5% CO2 atmosphere at 37 °C.
(§4) Cytotoxicity was assayed through the colorimetric microculture MTT assay. Cell suspensions were plated in 96-well plates in triplicate at an initial density of 7 × 10^4 cells mL^−1 and incubated at 37 °C for 24 h. After the incubation, the cells were treated with various concentrations of the evaluated compounds (7a,b, 8a,b, 9a,b, or 10a,b) and incubated for 24 and 48 h. After the treatment, the medium was removed, and an MTT solution (0.4 mg mL^−1) was added to each well and further incubated for 2 h at 37 °C. Then, DMSO (100 µL) was added for the solubilization of the formazan crystals, and the absorbance intensities were measured in a microplate reader (SpectraMax M2e, Molecular Devices, Sunnyvale, CA, USA) at 570 nm. The percentage of viable cells was calculated in relation to the control to determine the cytotoxic concentration that reduces 50% of the cell viability (IC50).

[4] = tested on: human lung carcinoma cells (A549); experiment: colorimetric MTT cytotoxicity assay, A549; assay type: cell-based; conditions: for IC50: Homo sapiens, MTT, n = 3, compounds as HP-β-CD inclusion complex
Description: as §1, §2, §3, §4

[5] = tested on: human laryngeal tumor cells (Hep-2); experiment: colorimetric MTT cytotoxicity assay, Hep-2; assay type: cell-based; conditions: for IC50: Homo sapiens, MTT, n = 3, compounds as HP-β-CD inclusion complex; for Selectivity Index Hep-2 24 h: IC50 of HaCat / IC50 of Hep-2, 24 h
Description: as §1, §2, §3, §4

[6] = tested on: HaCat (human keratinocyte); experiment: colorimetric MTT cytotoxicity assay, non-tumor HaCat; assay type: cell-based; conditions: for IC50: Homo sapiens, HaCat non-tumor line, MTT, n = 3, compounds as HP-β-CD inclusion complex
Description: as §1, §2, §3, §4

[7] = HCT116, 24 h, read-out: IC50 (µM ± SD) HCT116 24 h
[8] = HCT116, 48 h, read-out: IC50 (µM ± SD) HCT116 48 h
[9] = A549, 24 h, read-out: IC50 (µM ± SD) A549 24 h
[10] = A549, 48 h, read-out: IC50 (µM ± SD) A549 48 h
[11] = Hep-2, 24 h, read-out: IC50 (µM ± SD) Hep-2 24 h
[12] = Hep-2, 48 h, read-out: IC50 (µM ± SD) Hep-2 48 h
[13] = 24 h, read-out: IC50 (µM ± SD) HaCat 24 h
[14] = 48 h, read-out: IC50 (µM ± SD) HaCat 48 h

SMILES: COc1cccc(/C=C/C(=O)c2cccc(-n3cc(COc4cc(=O)oc5ccccc45)nn3)c2)c1OC [A]
- IC50 [1]: 0.53 µM

SMILES: O=C1C(=O)N(CCCn2cc(Cn3ccc(=O)n(Cc4cn(CCCN5C(=O)C(=O)c6ccc(Cl)cc65)nn4)c3=O)nn2)c2cc(Cl)ccc21 [B]
- IC50 [2]: 13.9 µM

- melting point: 230 °C (dec.)
SMILES: O=c1ccn(Cc2cn(Cc3cc(=O)oc4cc(O)cc(O)c34)nn2)c(=O)[nH]1 [Compound 7a, 1-((1-((5,7-Dihydroxy-2-oxo-2H-chromen-4-yl)methyl)-1H-1,2,3-triazol-4-yl)methyl) Pyrimidine-2,4(1H,3H)-dione]
- IC50 [3, 7]: > 100 µM
- IC50 [3, 8]: > 100 µM
- IC50 [4, 9]: > 100 µM
- IC50 [4, 10]: > 100 µM
- IC50 [5, 11]: > 100 µM
- IC50 [5, 12]: > 100 µM
- IC50 [6, 13]: > 100 µM
- IC50 [6, 14]: > 100 µM

- melting point: 285 °C (dec.)
SMILES: Cc1cn(Cc2cn(Cc3cc(=O)oc4cc(O)cc(O)c34)nn2)c(=O)[nH]c1=O [Compound 7b, 1-((1-((5,7-Dihydroxy-2-oxo-2H-chromen-4-yl)methyl)-1H-1,2,3-triazol-4-yl)methyl)-5-methylpyrimidine-2,4(1H,3H)-dione]
- IC50 [3, 7]: > 100 µM
- IC50 [3, 8]: > 100 µM
- IC50 [4, 9]: > 100 µM
- IC50 [4, 10]: > 100 µM
- IC50 [5, 11]: > 100 µM
- IC50 [5, 12]: > 100 µM
- IC50 [6, 13]: > 100 µM
- IC50 [6, 14]: > 100 µM

- melting point: 235 °C (dec.)
SMILES: O=c1ccn(Cc2cn(Cc3cc(=O)oc4c3ccc3ccccc34)nn2)c(=O)[nH]1 [Compound 8a, 1-((1-((2-Oxo-2H-benzo[h]chromen-4-yl)methyl)-1H-1,2,3-triazol-4-yl)methyl) Pyrimidine-2,4(1H,3H)-dione]
- IC50 [3, 7]: > 100 µM
- IC50 [3, 8]: > 100 µM
- IC50 [4, 9]: > 100 µM
- IC50 [4, 10]: > 100 µM
- IC50 [5, 11]: > 100 µM
- IC50 [5, 12]: > 100 µM
- IC50 [6, 13]: > 100 µM
- IC50 [6, 14]: > 100 µM

- melting point: 270 to 272 °C
SMILES: Cc1cn(Cc2cn(Cc3cc(=O)oc4c3ccc3ccccc34)nn2)c(=O)[nH]c1=O [Compound 8b, 1-((1-((2-Oxo-2H-benzo[h]chromen-4-yl)methyl)-1H-1,2,3-triazol-4-yl)methyl)-5-methylpyrimidine-2,4(1H,3H)-dione]
- IC50 [3, 7]: 87.6 ± 1.94 µM
- IC50 [3, 8]: > 100 µM
- Selectivity Index HCT116 24 h [3]: 5
- IC50 [4, 9]: > 100 µM
- IC50 [4, 10]: > 100 µM
- IC50 [5, 11]: > 100 µM
- IC50 [5, 12]: > 100 µM
- IC50 [6, 13]: 454.1 ± 2.67 µM
- IC50 [6, 14]: > 100 µM

- melting point: 302 °C (dec.)
SMILES: O=c1cc(Cn2cc(Cn3ccc(=O)n(Cc4cn(Cc5cc(=O)oc6cc(O)cc(O)c56)nn4)c3=O)nn2)c2c(O)cc(O)cc2o1 [Compound 9a, 1,3-Bis((1-((5,7-dihydroxy-2-oxo-2H-chromen-4-yl)methyl)-1H-1,2,3-triazol-4-yl)methyl)pyrimidine-2,4(1H,3H)-dione]
- activity compared to doxorubicin (fold) ([3]; HCT116 cell line, IC50 relative to doxorubicin): approximately 20 fold
- IC50 [3, 7]: 69.2 ± 1.85 µM
- IC50 [3, 8]: 24.2 ± 1.39 µM
- Selectivity Index HCT116 48 h [3]: 6
- cytotoxicity effect against A549 cells (in words) ([4]; 24 and 48 h treatments): No cytotoxicity effect was observed
- IC50 [4, 9]: > 100 µM
- IC50 [4, 10]: > 100 µM
- IC50 [5, 11]: 51.6 ± 1.71 µM
- IC50 [5, 12]: > 100 µM
- Selectivity Index Hep-2 24 h [5]: 12
- IC50 [6, 13]: 634.9 ± 2.8 µM
- IC50 [6, 14]: 142 ± 2.15 µM
- cytotoxicity against the non-tumor cells HaCat (in words) ([6]; highest evaluated concentration 100 μM, all exposure times): did not exhibit appreciable cytotoxicity

- melting point: 193 to 195 °C
SMILES: O=c1cc(Cn2cc(Cn3ccc(=O)n(Cc4cn(Cc5cc(=O)oc6c5ccc5ccccc56)nn4)c3=O)nn2)c2ccc3ccccc3c2o1 [Compound 9b, 1,3-Bis((1-((2-oxo-2H-benzo[h]chromen-4-yl)methyl)-1H-1,2,3-triazol-4-yl)methyl)pyrimidine-2,4(1H,3H)-dione]
- IC50 [3, 7]: 54.5 ± 1.74 µM
- IC50 [3, 8]: 59.2 ± 1.77 µM
- Selectivity Index HCT116 24 h [3]: 19
- Selectivity Index HCT116 48 h [3]: 55
- IC50 [4, 9]: > 100 µM
- IC50 [4, 10]: 51 ± 1.71 µM
- Selectivity Index A549 48 h ([4]; IC50 of HaCat / IC50 of A549, 48 h): 63
- cytotoxicity for Hep-2 cells (in words) [5]: No appreciative cytotoxicity was observed
- IC50 [5, 11]: > 100 µM
- IC50 [5, 12]: > 100 µM
- IC50 [6, 13]: 1049 ± 3.02 µM
- IC50 [6, 14]: 3228 ± 3.5 µM

- melting point: 315 °C (dec.)
SMILES: Cn1cnc2c1c(=O)n(Cc1cn(Cc3cc(=O)oc4cc(O)cc(O)c34)nn1)c(=O)n2C [Compound 10a, 1-((1-((5,7-Dihydroxy-2-oxo-2H-chromen-4-yl)methyl)-1H-1,2,3-triazol-4-yl)methyl)-3,7-dimethyl-3,7-dihydro-1H-purine-2,6-dione]
- IC50 [3, 7]: 78.3 ± 1.89 µM
- IC50 [3, 8]: > 100 µM
- Selectivity Index HCT116 24 h [3]: 4
- IC50 [4, 9]: > 100 µM
- IC50 [4, 10]: > 100 µM
- IC50 [5, 11]: 56.6 ± 1.75 µM
- IC50 [5, 12]: > 100 µM
- Selectivity Index Hep-2 24 h [5]: 5
- IC50 [6, 13]: 307.8 ± 2.49 µM
- IC50 [6, 14]: > 100 µM

- melting point: 288 to 290 °C
SMILES: Cn1cnc2c1c(=O)n(Cc1cn(Cc3cc(=O)oc4c3ccc3ccccc34)nn1)c(=O)n2C [Compound 10b, 3,7-Dimethyl-1-((1-((2-oxo-2H-benzo[h]chromen-4-yl)methyl)-1H-1,2,3-triazol-4-yl)methyl)-3,7-dihydro-1H-purine-2,6-dione]
- IC50 [3, 7]: 41 ± 1.61 µM
- IC50 [3, 8]: 84.7 ± 1.92 µM
- Selectivity Index HCT116 24 h [3]: 6
- IC50 [4, 9]: > 100 µM
- IC50 [4, 10]: > 100 µM
- IC50 [5, 11]: > 100 µM
- IC50 [5, 12]: > 100 µM
- IC50 [6, 13]: 263.3 ± 2.42 µM
- IC50 [6, 14]: 120 ± 2.08 µM

SMILES: COc1cccc2c1C(=O)c1c(O)c3c(c(O)c1C2=O)C[C@@](O)(C(=O)CO)C[C@@H]3O[C@H]1C[C@H](N)[C@H](O)[C@H](C)O1 [Doxorubicin, doxorubicin, reference compound]
- IC50 [3, 8]: 1.23 ± 0.05 µM
- IC50 [5, 12]: 1.69 ± 0.15 µM
- IC50 [6, 14]: 39.3 ± 1.59 µM
